The source of these data is US20120028917A1, “Use Of N-(4-((3-(2-Amino-4-Pyrimidinyl)-2-Pyridinyl)Oxy)Phenyl)-4-(4-Methyl-2-Thienyl)-1-Phthalazinamine In The Treatment Of Antimitotic Agent Resistant Cancer” (Amgen Inc., priority 2009, published 2012).

Like-named read-outs stand apart in the source and are kept apart here.

Assay [1] has as its system HCT116 parental. Nature of the assay: ≧4N DNA content assay (FIG. 6-A). The assay is classed as cell-based. The conditions noted are these: Homo sapiens, HCT-116, 24 hours, read-out: cellular ≧4N DNA content EC50. On the procedure: (§1) Tumor cells were treated with AMG 900, AZD1152, MK-0457, or PHA-739358 (range concentration varied based on potency) for 24 hours and processed for cell-cycle analysis (DNA staining only) as previously described (1). Cells were analyzed on a LSRII flow cytometer using BD FACS Diva software. The concentration-response curves and corresponding EC50 values were calculated using the percentage of cells with ≧4N DNA content versus the DMSO control.
(§2) HCT116 cell lines were treated with increasing concentrations of AMG 900 or AZD1152 for 24 hours. Flow cytometry was used to assess the accumulation of cells with ≧4N DNA content expressed as a percentage of the DMSO-treated control (POC). The concentration-response curves and calculated EC50 values were determined from two independent experiments (bars, ±SD).

The test system of assay [2] is MDA-MB-231 parental. The experiment in a line: p-histone H3 fluorescence-based cell imaging assay. Conditions: P-gp −. Details: species or system human. On the procedure:
(§3) All high-content cell assays were performed on an ArrayScan VTi HCS Reader (Cellomics). Tumor cell lines were treated with AMG 900, AZD1152, MK-0457, or PHA-739358 (concentration range varied based on potency). The cells were prepared for intracellular staining with an anti-p-histone H3 Ser^10 antibody as previously described (1). Detection was performed with an anti-rabbit IgG-alexa-568 antibody and DAPI. The cellular levels of p-histone H3 were analyzed using Target Activation V2 algorithm (Cellomics) to determine the percentage of positive cells. For the imaging assays, the concentration-response curves and corresponding IC50 and EC50 values were calculated using the percentage of cells affected versus the DMSO control.

The subject of assay [3] is MES-SA parental. Nature of the assay: p-histone H3 fluorescence-based cell imaging assay. Details: species or system human. The conditions noted are these: P-gp −. On the procedure: as §3
Assay [4] relates to MDA-MB-231 PTX paclitaxel resistant. The experiment in a line: p-histone H3 fluorescence-based cell imaging assay. Details: species or system human. Conditions: for EC50: MDA-MB-231-PTX*, Breast, P-gp+, read-out: Cellular EC50; for IC50: MDA-MB-231 PTX paclitaxel resistant, P-gp +. On the procedure:
as §3

In assay [5] the test system is MES-SA-Dx5 doxorubicin resistant. The experiment in a line: p-histone H3 fluorescence-based cell imaging assay. Details: species or system human. The conditions noted are these: for EC50: MES-SA Dx5*, Uterine, P-gp+, read-out: Cellular EC50; for IC50: MES-SA-Dx5 doxorubicin resistant, P-gp +. Here is the method: as §3
In assay [6] the test system is NCI-H460 PTX paclitaxel resistant. The experiment in a line: p-histone H3 fluorescence-based cell imaging assay. Conditions: for EC50: NCI-H460-PTX*, Lung, P-gp+, read-out: Cellular EC50; for IC50: NCI-H460 PTX paclitaxel resistant, P-gp +. Details: species or system human. On the procedure:
as §3

The subject of assay [7] is NCI-H460 parental. The experiment in a line: p-histone H3 fluorescence-based cell imaging assay. Details: species or system human. Conditions: P-gp −. Here is the method: as §3
Assay [8] relates to U226-B1. Nature of the assay: ≧4N DNA content assay (flow cytometry). It counts as cell-based, human. Conditions: U226-B1, BCRP −, 24 hours. Here is the method: as §1
The test system of assay [9] is RPMI8226. Nature of the assay: ≧4N DNA content assay (flow cytometry). The assay is classed as cell-based, human. On the procedure:
as §1
In general terms: In flow cytometry, cells or beads pass a laser one at a time.

In assay [10] the test system is HCT116 AZD1152-resistant. Nature of the assay: Colony formation assay (FIG. 6-B). The assay is classed as cell-based, human. Conditions: HCT116 variant subline, at 50 nmol/L. Here is the method: Tumor cell lines were obtained from the American Type Culture Collection (ATCC) unless otherwise specified. The MDA-MB-231-PTX and NCI-H460-PTX cell lines were established by growing the cells in the presence of increasing concentrations of paclitaxel over a period of 6 months. The HCT116 AZD1152-resistant cell line was established by growing the cells in the presence of AZD1152 at 80 nmol/L. Tumor cells were treated with AMG 900, paclitaxel or AZD1152 (0.5, 5, 50 nmol/L) for 48 hours, washed twice with complete media, and cells were re-plated at a density of 5000 cells per well in drug-free complete media. Cells were grown until the DMSO control wells were confluent. Cells were stained with crystal violet dye (Sigma), washed with distilled water, and imaged using a digital scanner (Hewlett-Packard). Colony formation assay was performed with HCT116 cell lines (parental and AZD1152-resistant). Cells were treated with DMSO, AMG 900, AZD1152, or paclitaxel at the indicated concentrations for 48 hours and re-plated in complete media lacking the inhibitor. After the DMSO-treated cells reached confluence, the cells were stained with crystal violet and imaged (duplicate wells).

For assay [11], the system named is 769P. The experiment in a line: Cellular EC50, additional cell lines (Table 6-B). The assay is classed as cell-based. The conditions noted are these: Homo sapiens, Kidney, P-gp+. Here is the method:
as §3, §1

Assay [12] has as its system SNU499. Nature of the assay: Cellular EC50, additional cell lines (Table 6-B). It counts as cell-based. The conditions noted are these: Homo sapiens, Liver, P-gp+. Here is the method:
as §3, §1

Assay [13] concerns HCT116 AZD1152-resistant. The experiment in a line: ≧4N DNA content assay (FIG. 6-A). It counts as cell-based. Conditions: Homo sapiens, HCT-116; HCT116 AZD1152-resistant subline; 24 hours; read-out: cellular ≧4N DNA content EC50. On the procedure:
Tumor cell lines were obtained from the American Type Culture Collection (ATCC) unless otherwise specified. The MDA-MB-231-PTX and NCI-H460-PTX cell lines were established by growing the cells in the presence of increasing concentrations of paclitaxel over a period of 6 months. The HCT116 AZD1152-resistant cell line was established by growing the cells in the presence of AZD1152 at 80 nmol/L.
as §1, §2

Assay [14] has as its system MCF-7. Nature of the assay: Cellular EC50, additional cell lines (Table 6-B). It counts as cell-based, human. The conditions noted are these: MCF-7, Breast. On the procedure:
as §3, §1

The test system of assay [15] is HCT15. Nature of the assay: Cellular EC50, additional cell lines (Table 6-B). It counts as cell-based, human. Conditions: P-gp+. On the procedure:
as §3, §1

The mark [16] stands for this setting: Homo sapiens, RPMI-8226, RPMI8226, BCRP +, 24 hours, read-out: ≧4N DNA Content assay, EC50 value.
[17] abbreviates: Homo sapiens, RPMI-8226**, Multiple Myeloma, P-gp− and/or BCRP+, read-out: Cellular EC50.

On to `CCN(CCCOc1ccc2c(Nc3cc(CC(=O)Nc4cccc(F)c4)n[nH]3)ncnc2c1)CCOP(=O)(O)O` [AZD1152], for which the EC50 (usually the concentration that produces a half-maximal response) in [1] was 34 nM; in assay [4] (Homo sapiens), > 500 nM; in [5] (Homo sapiens) it was > 500 nM; in assay [6] (Homo sapiens), > 500 nM; in assay [8] (Homo sapiens) it was 12 nM; in [9] (setting [16]) it was 865 nM. In addition, the concentration giving a half-maximal response (EC50) in [9] (setting [17]) is 865 nM; in assay [11], 703 nM; in [12] it was > 1250 nM; in assay [13] it was 672 nM; in [14] (Homo sapiens, MCF7), 11 nM; in assay [15] (Homo sapiens, HCT-15, Colon) it was > 625 nM. In addition, the IC50 – broadly, the concentration at which inhibition is half-maximal – was 16 nM in assay [2] (Homo sapiens); 51 nM in [3] (Homo sapiens); > 500 nM in assay [4] (Homo sapiens); > 500 nM in [5] (Homo sapiens); > 500 nM in assay [6] (Homo sapiens); 131 nM in assay [7] (Homo sapiens). For the same compound, the “sensitivity in colony formation” value in [10] was “insensitive”.
Take `Cc1cc(Nc2cc(N3CCN(C)CC3)nc(Sc3ccc(NC(=O)C4CC4)cc3)n2)n[nH]1` [MK-0457]: the IC50 in [2] was 43 nM; in assay [3] it was 51 nM; in assay [4], 277 nM; in [5], > 1250 nM; in [6], 468 nM; in [7], 123 nM. Further, the EC50 is 277 nM in assay [4]; > 1250 nM in [5]; 468 nM in assay [6]; 46 nM in assay [8]; 162 nM in [9] (RPMI8226, BCRP +, 24 hours, read-out: ≧4N DNA Content assay, EC50 value); 162 nM in assay [9] (RPMI-8226**, Multiple Myeloma, P-gp− and/or BCRP+, read-out: Cellular EC50). In addition, the 50% effective concentration (EC50) was 27 nM in assay [14] and 908 nM in assay [15] (Colon).
For `CO[C@@H](C(=O)N1Cc2n[nH]c(NC(=O)c3ccc(N4CCN(C)CC4)cc3)c2C1)c1ccccc1` [PHA-739358], the half-inhibitory concentration (IC50) in [2] (Homo sapiens) is 49 nM; in [3] (Homo sapiens), 113 nM; in assay [4] (Homo sapiens), > 1250 nM; in assay [5] (Homo sapiens), > 1250 nM; in assay [6] (Homo sapiens) it was > 1250 nM; in assay [7] (Homo sapiens), 510 nM. The EC50 in assay [4] (Homo sapiens) was > 1250 nM; in [5] (Homo sapiens) it was > 1250 nM; in assay [6] (Homo sapiens) it was > 1250 nM; in assay [8] (Homo sapiens) it was 67 nM; in assay [9] (setting [16]), > 1250 nM; in assay [9] (setting [17]) it was > 1250 nM. For the same compound, the EC50 was > 1250 nM in assay [11]; > 1250 nM in assay [12]; 68 nM in assay [14] (Homo sapiens, MCF7); > 1250 nM in assay [15] (Homo sapiens, HCT-15, Colon).
